According to US20250154109A1, “SODIUM CHANNEL BLOCKING COMPOUNDS, DERIVATIVES THEREOF, AND METHODS OF THEIR USE” (LATIGO BIOTHERAPEUTICS, INC, priority 2022, published 2025):
Where a name gives a salt, the structure may show the parent alone. Read-outs that look alike come from different tables or passages of the source.

Molecular target: human Nav1.8 (Homo sapiens, UniProt Q9Y5Y9)
Assay: SyncroPatch384PE assay (automated patch clamp)
Format: cell-based
Conditions: human Nav1.8/b3 CHO cells
Experimental: Compounds were tested on recombinant human Nav1.8/b3 stably transfected CHO cells using the SyncroPatch384PE system (Nanion Technologies), an automated patch clamp device. Cells were cultured at 37° C./5% CO2 in Ham's F-12 supplemented with 10% fetal bovine serum, 100 U/mL penicillin G sodium, […] streptomycin sulfate and selection antibiotics (0.01 mg/mL Blasticidin, 0.4 mg/mL Zeocin and 0.25 mg/mL Hygromycin). On the day of the recordings, cells in culture dishes were washed twice with Hank's Balanced Salt Solution (HBSS) and treated with Accutase for approximately 20 minutes. Immediately before use in the SynchroPatch384PE using an 8-hole NPC-384 chip, the cells were washed in HBSS to remove the Accutase and re-suspended in extracellular solution. All experiments were performed at ambient temperature. Intracellular solution contained (mM): CsCl, 50; CsF, 90; MgCl2, 5; EGTA, 1; HEPES, 10; pH adjusted to 7.2 with CsOH. Extracellular solution contained (mM): NaCl, 137; KCl, 4.0; CaCl2), 3.8; MgCl2, 1; HEPES, 10; Glucose, 10; pH adjusted to 7.4 with NaOH. 100 nM tetrodotoxin (TTX) was added to the extracellular solution to block endogenous TTX-sensitive sodium currents.
Compounds were tested in quadruplicate in 0.3% DMSO and 0.03% pluronic Acid. Compounds were diluted 1:3.33 in extracellular solution to create an 8-point concentration response curve. Each plate contained a historical positive control and up to ten compounds. 300 μM tetracaine and 0.3% DMSO+0.03% pluronic acid were used as high and low controls respectively.
Whole cell patch clamp recordings were conducted according to Nanion's standard procedure for SyncroPatch384PE®. Cells were held at a holding potential of −120 mV. A depolarization step to 10 mV for 30 ms was applied (P1 measurement), followed by a hyperpolarization step to −100 mV for 100 ms. An inactivation step at −35 mV for 10 sec was applied before stepping to −100 mV for 20 ms, followed by a step to 10 mV for 30 ms (P2 measurement) and then back to −100 mV for 30 ms. Sweep interval was 15 sec. Following establishment of the whole-cell configuration in extracellular solution, cells were washed in extracellular solution containing 0.3% DMSO and 0.03% pluronic acid to stabilize the baseline current. Compounds were then applied by the SynchroPatch384 PE system into each well and the current was recorded for five minutes in extracellular solution, followed by application of tetracaine to achieve full block at the end of experiment. The potency of the compounds was assessed on two read-outs, resting state block (P1 measurement) or inactivated state block (P2 measurement) to obtain IC50 values. Values were normalized to high (tetracaine) and low (DMSO+pluronic acid) controls.
Examples 1 to 219 and Examples 225 to 236 are assayed using SyncroPatch384PE assay described above.

[1] = inactivated state block (P2 measurement), read-out: P2 IC50
[2] = resting state block (P1 measurement), read-out: P1 IC50

Sequence of human Nav1.8 (Q9Y5Y9 whole entry): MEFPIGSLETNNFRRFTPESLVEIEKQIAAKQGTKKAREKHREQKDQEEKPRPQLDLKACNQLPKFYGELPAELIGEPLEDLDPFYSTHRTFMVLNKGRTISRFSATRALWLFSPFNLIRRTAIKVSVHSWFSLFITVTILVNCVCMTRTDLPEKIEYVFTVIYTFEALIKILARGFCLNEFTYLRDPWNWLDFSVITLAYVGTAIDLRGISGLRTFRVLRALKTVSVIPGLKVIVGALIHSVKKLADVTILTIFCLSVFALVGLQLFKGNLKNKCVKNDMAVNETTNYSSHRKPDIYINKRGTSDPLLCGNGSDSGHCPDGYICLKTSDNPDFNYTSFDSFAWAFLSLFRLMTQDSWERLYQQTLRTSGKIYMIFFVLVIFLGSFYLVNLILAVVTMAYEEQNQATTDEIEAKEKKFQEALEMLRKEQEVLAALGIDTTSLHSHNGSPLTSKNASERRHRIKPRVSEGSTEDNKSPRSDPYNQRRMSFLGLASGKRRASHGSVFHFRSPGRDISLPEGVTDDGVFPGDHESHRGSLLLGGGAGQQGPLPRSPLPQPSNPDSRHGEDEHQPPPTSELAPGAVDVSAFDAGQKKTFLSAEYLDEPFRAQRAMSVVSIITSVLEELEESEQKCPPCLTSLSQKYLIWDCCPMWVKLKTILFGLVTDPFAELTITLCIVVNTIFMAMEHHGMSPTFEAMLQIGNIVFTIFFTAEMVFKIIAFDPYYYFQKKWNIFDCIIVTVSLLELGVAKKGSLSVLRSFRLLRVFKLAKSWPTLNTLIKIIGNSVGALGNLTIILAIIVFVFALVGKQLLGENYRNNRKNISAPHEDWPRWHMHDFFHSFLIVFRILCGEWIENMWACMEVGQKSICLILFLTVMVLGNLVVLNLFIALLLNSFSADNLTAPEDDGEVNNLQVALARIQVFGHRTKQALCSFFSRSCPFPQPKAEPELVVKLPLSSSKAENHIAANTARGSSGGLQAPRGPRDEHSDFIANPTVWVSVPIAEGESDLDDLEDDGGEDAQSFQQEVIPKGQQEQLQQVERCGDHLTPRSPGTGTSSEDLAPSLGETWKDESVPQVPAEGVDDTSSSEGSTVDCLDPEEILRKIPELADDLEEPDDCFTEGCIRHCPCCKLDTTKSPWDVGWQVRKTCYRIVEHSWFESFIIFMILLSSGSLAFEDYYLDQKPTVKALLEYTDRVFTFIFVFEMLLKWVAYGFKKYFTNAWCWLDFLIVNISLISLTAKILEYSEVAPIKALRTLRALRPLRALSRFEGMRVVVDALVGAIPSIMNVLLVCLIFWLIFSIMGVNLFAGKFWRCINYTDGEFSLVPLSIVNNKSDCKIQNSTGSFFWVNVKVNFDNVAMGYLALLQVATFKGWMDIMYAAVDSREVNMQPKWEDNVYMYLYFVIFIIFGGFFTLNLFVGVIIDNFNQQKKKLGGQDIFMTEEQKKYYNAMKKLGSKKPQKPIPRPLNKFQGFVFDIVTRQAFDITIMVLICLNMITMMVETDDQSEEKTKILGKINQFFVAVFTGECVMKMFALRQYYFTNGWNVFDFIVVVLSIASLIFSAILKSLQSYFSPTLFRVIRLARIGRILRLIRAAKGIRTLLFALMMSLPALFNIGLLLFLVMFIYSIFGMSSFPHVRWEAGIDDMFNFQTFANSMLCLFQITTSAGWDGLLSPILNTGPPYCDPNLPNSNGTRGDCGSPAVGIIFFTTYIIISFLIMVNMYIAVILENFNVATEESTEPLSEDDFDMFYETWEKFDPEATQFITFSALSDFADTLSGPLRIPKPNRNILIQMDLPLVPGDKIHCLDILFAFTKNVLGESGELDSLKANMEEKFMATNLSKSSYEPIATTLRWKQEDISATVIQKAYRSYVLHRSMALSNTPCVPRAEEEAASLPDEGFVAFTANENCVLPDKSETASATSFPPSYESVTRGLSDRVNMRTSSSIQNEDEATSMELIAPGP

Row | Compound | IC50 [1] | IC50 [2]
1 | CNCC(=O)N=[S@](C)(=O)c1cccc(NC(=O)c2c(N3CCCC(F)(F)CC3)ncc(C(F)(F)F)c2C)c1 [Example 194, (R)-2-(4,4-difluoroazepan-1-yl)-4-methyl-N-(3-(S-methyl-N-(methylglycyl)sulfonimidoyl)phenyl)-5-(trifluoromethyl)nicotinamide] | ≤ 5 nM | ≤ 5 nM
2 | Cc1c(C(F)(F)F)nnc(N2CCCCCC2)c1C(=O)Nc1cccc(S(C)(=N)=O)c1 (stereo not drawn) [Example 7, 3-(azepan-1-yl)-5-methyl-N-(3-(S-methylsulfonimidoyl)phenyl)-6-(trifluoromethyl)pyridazine-4-carboxamide] | 100 to 200 nM | 100 to 200 nM
3 | Cc1c(-c2cnn(C)c2)cnc(N2CCCC(F)(F)CC2)c1C(=O)Nc1cccc([S@@](C)(=O)=NC(=O)C2CNC2)c1 [Example 51, (R)-N-(3-(N-(azetidine-3-carbonyl)-S-methylsulfonimidoyl)phenyl)-2-(4,4-difluoroazepan-1-yl)-4-methyl-5-(1-methyl-1H-pyrazol-4-yl)nicotinamide formate] | 5 to 50 nM | 5 to 50 nM
4 | Cc1c(-c2ccccn2)cnc(N2CCCC(F)(F)CC2)c1C(=O)Nc1cccc(S(C)(=N)=O)c1 (stereo not drawn) [Example 99, 6 C(4,4-difluoroazepan-1-yl)-4methyl-N-(3-(S-methylsulfonimidoyl)phenyl)-[2,3bipyridine]-5carboxamide] | 100 to 200 nM | 100 to 200 nM
5 | Cc1c(-c2ccc3c(c2)OCCO3)cnc(N2CCCC(F)(F)CC2)c1C(=O)Nc1cccc([S@](C)(=N)=O)c1 [Example 47, (R)-2-(4,4-difluoroazepan-1-yl)-5-(2,3-dihydrobenzo[b][1,4]dioxin-6-yl)-4-methyl-N-(3-(S-methylsulfonimidoyl)phenyl)nicotinamide] | 5 to 50 nM | 5 to 50 nM
6 | Cc1c(-c2cccc(F)c2)cnc(N2CCCC(F)(F)CC2)c1C(=O)Nc1cccc([S@@](C)(=N)=O)c1 [Example 111, (S)-2-(4,4-difluoroazepan-1-yl)-5-(3-fluorophenyl)-4-methyl-N-(3-(S-methylsulfonimidoyl)phenyl)nicotinamide] | ≤ 5 nM | ≤ 5 nM
7 | COc1ccc(-c2nnc(N3CCCC(F)(F)CC3)c(C(=O)Nc3cccc([S@@](C)(=N)=O)c3)c2C)cc1 (single isomer, unassigned) [Example 137] | > 200 nM | > 200 nM
8 | Cc1nc(N2CCCC(F)(F)CC2)c(C(=O)Nc2cccc(S(C)(=N)=O)c2)c(C)c1Cl (stereo not drawn) [Example 106, 5-chloro-2-(4,4-difluoroazepan-1-yl)-4,6-dimethyl-N-(3-(S-methylsulfonimidoyl)phenyl)nicotinamide] | ≤ 5 nM | ≤ 5 nM
9 | Cc1ccsc1-c1nnc(N2CCCCCC2)c(C(=O)Nc2cccc(S(C)(=N)=O)c2)c1C (stereo not drawn) [Example 79, 3-(Azepan-1-yl)-5-methyl-N-(3-(S-methylsulfonimidoyl)phenyl)-6-(3-methylthiophen-2-yl)pyridazine-4-carboxamide] | > 200 nM | > 200 nM
10 | Cc1c(-c2ccc(C(F)F)cc2)cnc(N2CCCC(F)(F)CC2)c1C(=O)Nc1cccc(S(C)(=N)=O)c1 (stereo not drawn) [Example 87, 2-(4,4-difluoroazepan-1-yl)-5-(4-(difluoromethyl)phenyl)-4-methyl-N-(3-(S-methylsulfonimidoyl)phenyl)nicotinamide] | ≤ 5 nM | ≤ 5 nM
11 | CS(=N)(=O)c1cccc(NC(=O)c2nnc(C(F)(F)F)cc2N2CCCC(F)(F)CC2)c1 (stereo not drawn) [Example 21, 4-(4,4-difluoroazepan-1-yl)-N-(3-(S-methylsulfonimidoyl)phenyl)-6-(trifluoromethyl)pyridazine-3-carboxamide] | > 200 nM | > 200 nM
12 | Cc1c(-c2ccccc2)nnc(N2CCCC(F)(F)CC2)c1C(=O)Nc1cccc(S(C)(=N)=O)c1 (stereo not drawn) [Example 20, 3-(4,4-difluoroazepan-1-yl)-5-methyl-N-(3-(S-methylsulfonimidoyl)phenyl)-6-phenylpyridazine-4-carboxamide] | 50 to 100 nM | 50 to 100 nM
13 | Cc1ccc(-c2nnc(N3CCCC(F)(F)CC3)c(C(=O)Nc3cccc([S@](C)(=N)=O)c3)c2C)cc1 [Example 225, (R)-3-(4,4-difluoroazepan-1-yl)-5-methyl-N-(3-(S-methylsulfonimidoyl)phenyl)-6-(p-tolyl)pyridazine-4-carboxamide] | 5 to 50 nM | 5 to 50 nM
14 | Cc1c(C(F)(F)F)cnc(N2CCCC(F)(F)CC2)c1C(=O)Nc1ccnc([S@](C)(=N)=O)c1 (single isomer, unassigned) [Example 189] | ≤ 5 nM | ≤ 5 nM
15 | Cc1c(-c2cnn(C)c2)cnc(N2CCCC(F)(F)CC2)c1C(=O)Nc1cccc([S@@](C)(=O)=NC(=O)CN)c1 [Example 74, (R)-2-(4,4-difluoroazepan-1-yl)-N-(3-(N-glycyl-S-methylsulfonimidoyl)phenyl)-4-methyl-5-(1-methyl-1H-pyrazol-4-yl)nicotinamide] | 5 to 50 nM | 5 to 50 nM
16 | Cc1nc(N2CCNCC2)nc(N2CCCC(F)(F)CC2)c1C(=O)Nc1cccc([S@](C)(=N)=O)c1 [Example 161, (R)-4-(4,4-difluoroazepan-1-yl)-6-methyl-N-(3-(S-methylsulfonimidoyl)phenyl)-2-(piperazin-1-yl)pyrimidine-5-carboxamide] | > 200 nM | > 200 nM
17 | CS(=O)(=O)c1cccc(NC(=O)c2nnc(C(F)(F)F)cc2N2CCCCCC2)c1 [Example 37, 4-(Azepan-1-yl)-N-(3-(methylsulfonyl)phenyl)-6-(trifluoromethyl)pyridazine-3-carboxamide] | > 200 nM | > 200 nM
18 | Cc1c(Cl)c(C(F)(F)F)nc(N2CCCC(F)(F)CC2)c1C(=O)Nc1cccc([S@](C)(=N)=O)c1 [Example 109, (R)-5-chloro-2-(4,4-difluoroazepan-1-yl)-4-methyl-N-(3-(S-methylsulfonimidoyl)phenyl)-6-(trifluoromethyl)nicotinamide] | ≤ 5 nM | ≤ 5 nM
19 | Cc1c(C(F)(F)F)nnc(N2CCCC(F)(F)CC2)c1C(=O)Nc1cccc([S@@](C)(=O)=NC(=O)C(C)(C)N)c1 [Example 235, (R)-N-(3-(N-(2-amino-2-methylpropanoyl)-S-methylsulfonimidoyl)phenyl)-3-(4,4-difluoroazepan-1-yl)-5-methyl-6-(trifluoromethyl)pyridazine-4-carboxamide] | ≤ 5 nM | ≤ 5 nM
20 | Cc1ccnc(N2CCCC(F)(F)CC2)c1C(=O)Nc1cccc(S(C)(=N)=O)c1 (stereo not drawn) [Example 105, 2-(4,4-difluoroazepan-1-yl)-4-methyl-N-(3-(S-methylsulfonimidoyl)phenyl)nicotinamide] | 50 to 100 nM | 50 to 100 nM
21 | Cc1cc(C(N)=O)nc(N2CCCC(F)(F)CC2)c1C(=O)Nc1cccc([S@](C)(=N)=O)c1 [Example 153, (R)-6-(4,4-difluoroazepan-1-yl)-4-methyl-N5-(3-(S-methylsulfonimidoyl)phenyl)pyridine-2,5-dicarboxamide] | > 200 nM | > 200 nM
22 | Cc1c(-c2cnn(C)c2)cnc(N2CCCC(F)(F)CC2)c1C(=O)Nc1cccc([S@@](C)(=O)=NC(=O)C2COC2)c1 [Example 54, (R)-2-(4,4-difluoroazepan-1-yl)-4-methyl-5-(1-methyl-1H-pyrazol-4-yl)-N-(3-(S-methyl-N-(oxetane-3-carbonyl)sulfonimidoyl)phenyl)nicotinamide] | 5 to 50 nM | 5 to 50 nM
23 | Cc1c(-c2cccc(C#N)c2)cnc(N2CCCC(F)(F)CC2)c1C(=O)Nc1cccc(S(C)(=N)=O)c1 (stereo not drawn) [Example 91, 5-(3-cyanophenyl)-2-(4,4-difluoroazepan-1-yl)-4-methyl-N-(3-(S-methylsulfonimidoyl)phenyl)nicotinamide] | 5 to 50 nM | 5 to 50 nM
24 | Cc1nc(N2CCC3(CC2)CC3)c(C(=O)Nc2cccc(S(C)(=N)=O)c2)cc1C(F)(F)F (stereo not drawn) [Example 25, 6-Methyl-N-(3-(S-methylsulfonimidoyl)phenyl)-2-(6-azaspiro[2.5]octan-6-yl)-5-(trifluoromethyl)nicotinamide] | ≤ 5 nM | ≤ 5 nM
